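Step 1: Grow cells in 96-well plates. Step 2: Expose to compound for 48 hours at 5 concentrations. Step 3: Interpolate endpoints linearly; if unreached, use highest concentration. Abbreviation: GI50, concentration required for 50% inhibition of growth. TGI: concentration producing complete growth inhibition.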
How the values were obtained:
Experiment in all cases: DTP human tumour cell line panel, 48 h
[1] = test system: HT29 colon
[2] = test system: TK-10 renal
[3] = test system: SF-539 CNS
[4] = test system: NCI-H460 lung
[5] = test system: BT-549 breast
[6] = test system: LOX IMVI melanoma
[7] = test system: PC-3 prostate
[8] = test system: SF-268 CNS
[9] = test system: K-562 leukemia
[10] = test system: SK-MEL-5 melanoma
[11] = test system: ACHN renal
[12] = test system: M14 melanoma
[13] = test system: UACC-62 melanoma
[14] = test system: A498 renal
[15] = test system: EKVX NSCLC
[16] = test system: MDA-MB-231 breast
[17] = test system: COLO 205 colon
[18] = test system: IGROV1 ovarian
[19] = test system: SF-295 CNS
[20] = test system: SNB-75 CNS
[21] = test system: U251 CNS
[22] = test system: SK-OV-3 ovarian
[23] = test system: OVCAR-3 ovarian
[24] = test system: HCT-15 colon
[25] = test system: MALME-3M melanoma
[26] = test system: DU-145 prostate
[27] = test system: CAKI-1 renal
[28] = test system: MOLT-4 leukemia
[29] = test system: KM12 colon
[30] = test system: HOP-62 NSCLC
[31] = test system: HS 578T breast
[32] = test system: OVCAR-5 ovarian
[33] = test system: CCRF-CEM leukemia
[34] = test system: SK-MEL-2 melanoma
[35] = test system: T-47D breast
[36] = test system: A549 NSCLC
[37] = test system: NCI-H23 lung
[38] = test system: SR leukemia
[39] = test system: RPMI-8226 leukemia
[40] = test system: SW-620 colon
[41] = test system: HCT-116 colon
[42] = test system: NCI/ADR-RES ovarian
[43] = test system: SNB-19 CNS
[44] = test system: MCF7 breast
[45] = test system: NCI-H522 lung
[46] = test system: HL-60(TB) leukemia
[47] = test system: MDA-MB-435
[48] = test system: UO-31 renal
[49] = test system: 786-0 renal
[50] = test system: OVCAR-8 ovarian
[51] = test system: SK-MEL-28 melanoma
[52] = test system: HCC-2998 colon
[53] = test system: OVCAR-4 ovarian
[54] = test system: NCI-H226 lung
[55] = test system: SN12C renal
[56] = test system: UACC-257 melanoma
[57] = test system: RXF 393 renal
[58] = test system: HOP-92 NSCLC

COC(=O)[C@@H](C)C[C@H](Cc1ccccc1)NC(=O)c1csc([C@@H](C[C@H](C(C)C)N(C)C(=O)[C@@H](NC(=O)CN(C)C)C2CC2)OC(C)=O)n1
GI50 [1]: 13 nM
GI50 [2]: 659 nM
TGI [2]: > 16500 nM
GI50 [3]: 22 nM
TGI [3]: 92.5 nM
GI50 [4]: 29.1 nM
TGI [4]: > 16500 nM
GI50 [5]: 12.7 nM
TGI [5]: 857 nM
GI50 [6]: 30.1 nM
TGI [6]: > 16500 nM
GI50 [7]: 26.7 nM
TGI [7]: > 16500 nM
GI50 [8]: 37.3 nM
TGI [8]: > 16500 nM
GI50 [9]: 2.99 nM
TGI [9]: > 16500 nM
GI50 [10]: 12.2 nM
TGI [10]: 434 nM
GI50 [11]: 93.8 nM
TGI [11]: > 16500 nM
GI50 [12]: 18.5 nM
GI50 [13]: 11.2 nM
TGI [13]: > 16500 nM
GI50 [14]: 304 nM
TGI [14]: > 7500 nM
GI50 [15]: 208 nM
TGI [15]: > 16500 nM
GI50 [16]: 85.8 nM
TGI [16]: > 16500 nM
GI50 [17]: 23.1 nM
TGI [17]: 499 nM
GI50 [18]: 24.5 nM
TGI [18]: > 16500 nM
GI50 [19]: 16.8 nM
TGI [19]: 329 nM
GI50 [20]: 6.96 nM
TGI [20]: > 16500 nM
GI50 [21]: 55 nM
TGI [21]: > 16500 nM
GI50 [22]: 434 nM
TGI [22]: > 16500 nM
GI50 [23]: 3.09 nM
GI50 [24]: 135 nM
TGI [24]: > 16500 nM
GI50 [25]: 36.5 nM
TGI [25]: > 16500 nM
GI50 [26]: 16.9 nM
GI50 [27]: 1300 nM
TGI [27]: > 16500 nM
GI50 [28]: 50.1 nM
TGI [28]: > 16500 nM
GI50 [29]: 21.5 nM
TGI [29]: > 10500 nM
GI50 [30]: 58.5 nM
TGI [30]: > 16500 nM
GI50 [31]: 26.3 nM
TGI [31]: > 16500 nM
GI50 [32]: 838 nM
TGI [32]: > 16500 nM
GI50 [33]: 15.4 nM
TGI [33]: > 3280 nM
GI50 [34]: 7.01 nM
TGI [34]: 149 nM
GI50 [35]: > 16500 nM
TGI [35]: > 16500 nM
GI50 [36]: 240 nM
TGI [36]: > 16500 nM
GI50 [37]: 63.5 nM
TGI [37]: > 16500 nM
GI50 [38]: 1.65 nM
TGI [38]: > 16500 nM
GI50 [39]: 5.76 nM
TGI [39]: > 7960 nM
GI50 [40]: 13.7 nM
TGI [40]: > 16500 nM
GI50 [41]: 15.4 nM
TGI [41]: > 5860 nM
GI50 [42]: 13400 nM
TGI [42]: > 16500 nM
GI50 [43]: 86.2 nM
TGI [43]: > 16500 nM
GI50 [44]: 2.58 nM
TGI [44]: > 16500 nM
GI50 [45]: 3.3 nM
TGI [45]: 260 nM
GI50 [46]: 2.72 nM
TGI [46]: 10.6 nM
GI50 [47]: 1.92 nM
TGI [47]: < 15.3 nM
GI50 [48]: 478 nM
TGI [48]: > 16500 nM
GI50 [49]: 38.2 nM
TGI [49]: > 16500 nM
GI50 [50]: 49.5 nM
TGI [50]: > 16500 nM
GI50 [51]: 10200 nM
TGI [51]: > 16500 nM
GI50 [52]: 57.3 nM
TGI [52]: > 16500 nM
GI50 [53]: 1160 nM
TGI [53]: > 16500 nM
GI50 [54]: 554 nM
TGI [54]: > 13200 nM
GI50 [55]: 64.7 nM
TGI [55]: > 16500 nM

O=C(Nc1ccc(Oc2cccc(Cl)c2)c(Cl)c1)c1cccnc1
GI50 [1]: 823 nM
TGI [1]: 6420 nM
GI50 [2]: 3160 nM
TGI [2]: 40100 nM
GI50 [3]: 1490 nM
TGI [3]: 7540 nM
GI50 [4]: 1880 nM
TGI [4]: 19100 nM
GI50 [5]: 5420 nM
TGI [5]: 44300 nM
GI50 [6]: 2900 nM
TGI [6]: 13000 nM
GI50 [8]: 3710 nM
TGI [8]: 46600 nM
GI50 [9]: 255 nM
TGI [9]: > 50000 nM
GI50 [10]: 1780 nM
TGI [10]: 6920 nM
GI50 [11]: 4060 nM
TGI [11]: > 50000 nM
GI50 [12]: 1380 nM
TGI [12]: 29000 nM
GI50 [13]: 3890 nM
TGI [13]: > 50000 nM
GI50 [14]: 1520 nM
TGI [14]: 4680 nM
GI50 [15]: 3620 nM
TGI [15]: > 50000 nM
GI50 [16]: 6250 nM
TGI [16]: 46000 nM
GI50 [17]: 1390 nM
TGI [17]: 8100 nM
GI50 [18]: 2760 nM
TGI [18]: > 50000 nM
GI50 [56]: 5100 nM
TGI [56]: 27000 nM
GI50 [19]: 1330 nM
TGI [19]: 16000 nM
GI50 [20]: 1210 nM
TGI [20]: 4810 nM
GI50 [21]: 2230 nM
TGI [21]: 18000 nM
GI50 [22]: 2120 nM
TGI [22]: > 50000 nM
GI50 [23]: 1220 nM
TGI [23]: 4280 nM
GI50 [24]: 343 nM
TGI [24]: > 50000 nM
GI50 [25]: 3160 nM
TGI [25]: 32800 nM
GI50 [26]: 2150 nM
TGI [26]: 36000 nM
GI50 [27]: 2630 nM
TGI [27]: 36600 nM
GI50 [28]: 2860 nM
TGI [28]: > 50000 nM
GI50 [29]: 782 nM
TGI [29]: 12000 nM
GI50 [30]: 1800 nM
TGI [30]: 25100 nM
GI50 [31]: 1830 nM
TGI [31]: 35500 nM
GI50 [32]: 5500 nM
TGI [32]: > 50000 nM
GI50 [33]: 1890 nM
TGI [33]: > 50000 nM
GI50 [34]: 2110 nM
TGI [34]: 20000 nM
GI50 [35]: 1910 nM
TGI [35]: > 50000 nM
GI50 [36]: 2080 nM
TGI [36]: > 50000 nM
GI50 [37]: 3300 nM
TGI [37]: > 50000 nM
GI50 [38]: 395 nM
TGI [38]: > 50000 nM
GI50 [39]: 2000 nM
TGI [39]: > 50000 nM
GI50 [40]: 1210 nM
TGI [40]: > 50000 nM
GI50 [41]: 2110 nM
TGI [41]: > 50000 nM
GI50 [42]: 1280 nM
TGI [42]: 11300 nM
GI50 [43]: 3150 nM
TGI [43]: > 50000 nM
GI50 [44]: 597 nM
TGI [44]: > 50000 nM
GI50 [57]: 927 nM
TGI [57]: 4650 nM
GI50 [45]: 968 nM
TGI [45]: 5890 nM
GI50 [46]: 1510 nM
TGI [46]: 6160 nM
GI50 [47]: 155 nM
TGI [47]: 723 nM
GI50 [48]: 3630 nM
TGI [48]: 30000 nM
GI50 [49]: 2690 nM
TGI [49]: 11600 nM
GI50 [50]: 2850 nM
TGI [50]: 33900 nM
GI50 [58]: 2730 nM
TGI [58]: 22100 nM
GI50 [51]: 7200 nM
TGI [51]: > 50000 nM
GI50 [52]: 5620 nM
TGI [52]: 15700 nM
GI50 [53]: 14500 nM
TGI [53]: > 50000 nM
GI50 [54]: 2160 nM
TGI [54]: 32000 nM
GI50 [55]: 3740 nM
TGI [55]: > 50000 nM
